Key:
Assay in all cases: agar dilution antimicrobial test (growth inhibition)
Format in all cases: cell-based
R. nigricans = settings: Rhizopus stolonifer, read-out: Percent Growth Inhibition
Description: (§1) In representative activity tests, 8-quinolinesulfonyl bromide is dispersed in warm melted nutrient agar which is then poured into petri dishes and allowed to solidify, the quinoline compound being employed in an amount sufficient to provide from 10 to 500 parts by weight thereof per million parts (ppm) of the ultimate agar composition. The surface of the agar is then inoculated with a variety of bacterial and fungal pest organisms, and the inoculated plates are incubated under conditions conducive to bacterial and fungal growth. Similar check plates in which the agar contains no active quinoline or other toxic compound are similarly inoculated and incubated.
(§2) In such operations, 8-quinolinesulfonyl bromide gave 100% growth inhibition (kills) and control of the following organisms at the indicated concentrations in parts per million:
(§3) In comparative operations, 8-quinolinesulfonyl chloride was tested for antimicrobial activity at 500 ppm using identical agar dilution tests. The following table indicates the percent growth inhibition of the following organisms: […]

B. subtilis = settings: Bacillus subtilis, read-out: Percent Growth Inhibition
Description: as §1, §2, §3

E. coli = settings: Escherichia coli, read-out: Percent Growth Inhibition
Description: as §1, §2, §3

S. typhosa = settings: read-out: Percent Growth Inhibition
Description: as §1, §2, §3

S. aureus = settings: Staphylococcus aureus, read-out: Percent Growth Inhibition
Description: as §1, §2, §3

P. Str-10 = settings: read-out: Percent Growth Inhibition
Description: as §1, §2, §3

P. pullulans = settings: read-out: Percent Growth Inhibition
Description: as §1, §2, §3

C. albicans = settings: Candida albicans, read-out: Percent Growth Inhibition
Description: as §1, §2, §3

M. phlei = settings: Mycolicibacterium phlei, read-out: Percent Growth Inhibition
Description: as §1, §2, §3

C. ips = settings: read-out: Percent Growth Inhibition
Description: as §1, §2, §3

C. pelliculosa = settings: Hansenula anomala, read-out: Percent Growth Inhibition
Description: as §1, §2, §3

[1] = tested on: Trichoderm Sp. Madison P-42; settings: read-out: Percent Growth Inhibition
Description: as §1, §2, §3

A. aerogenes = settings: Klebsiella aerogenes, read-out: Percent Growth Inhibition
Description: as §1, §2, §3

O=S(=O)(Cl)c1cccc2cccnc12 [8-Quinolinesulfonyl Chloride, 8-quinolinesulfonyl chloride]
inhibition at 500 ppm (R. nigricans): 0% | inhibition at 500 ppm (B. subtilis): 0% | inhibition at 500 ppm (E. coli): 0% | inhibition at 500 ppm (S. typhosa): 0% | inhibition at 500 ppm (S. aureus): 0% | inhibition at 500 ppm (P. Str-10): 0% | inhibition at 500 ppm (P. pullulans): 0% | inhibition at 500 ppm (C. albicans): 0% | inhibition at 500 ppm (M. phlei): 50% | inhibition at 500 ppm (C. ips): 0% | inhibition at 500 ppm (C. pelliculosa): 0% | inhibition at 500 ppm [1]: 0% | inhibition at 500 ppm (A. aerogenes): 0%
